Consider 27 compounds from US8691818B2, “Cyclic triazo and diazo sodium channel blockers” (University Of Greenwich, priority 2008, dated 2014).

Series [1] deals with sodium channel. The experiment in a line: [14C]guanidine flux: veratrine-evoked uptake of [14C]guanidine into rat forebrain synaptosomes (primary sodium channel assay). Type of series: biochemical. The following applies: 30° for 2½ min. The method, then:
The screening strategy is designed to select compounds with appropriate sodium channel blocking activity and low side effect liability. To this end all compounds are processed through the primary sodium channel assay (veratrine-evoked uptake of [^14C]guanidine into rat forebrain synaptosomes) and IC50 values computed from generated concentration-effect curves.
Experiments were performed using forebrain (whole brain less cerebellum/medulla) from Male Wistar rats weighing 175-250 g. All efforts were made to reduce the number of animals used and all experiments were carried out in accordance with the UK Animals (Scientific Procedures) Act, 1986 and the European Community Council Directive of 24 Nov. 1986 (86/609/EEC). Following killing of animals by stunning and decapitation, the forebrain (whole brain less cerebellum/medulla) was rapidly dissected and transferred to a weighed tube containing ice-cold 0.25M sucrose.
Synaptosomes (heavy and light mitochondrial fraction containing synaptosomes) were prepared by transferring the forebrain (of known wet weight) to a glass Potter vessel to which 9 volumes ice-cold 0.25M sucrose had been added and homogenising, using a teflon pestle, by 8 ‘up and down strokes’ of a Braun Potter S motor driven homogeniser set to 900 rpm. The resulting homogenate was centrifuged at 1036×g at 4° for 10 min and the supernatant collected. The remaining pellet was resuspended, as above, in fresh ice-cold 0.25M sucrose and the centrifugation step repeated. The supernatant fractions were pooled and centrifuged at 40,000×g (average) at 4° for 15 min and the resulting pellet resuspended in the appropriate assay buffer at a concentration of 20-25 mg wet weight per ml appropriate assay buffer.
Both assays were carried out using 14 ml polypropylene test tubes to which a range of concentrations of the compounds under test were added.
The [^14C] guanidinine flux assay was measured using the method of Pauwels P J et al (1986) but carried out@30° for 2½ min.
(§1) Data are presented as mean±sem of number of experiments indicated in brackets.

Series [2] has as its target T1, DiHydroFolate Reductase (DHFR) (Rattus norvegicus, UniProt Q920D2).
T1 construct: from tissue; host or cells: rat liver homogenate supernatant
T1 sequence (Q920D2 1-187): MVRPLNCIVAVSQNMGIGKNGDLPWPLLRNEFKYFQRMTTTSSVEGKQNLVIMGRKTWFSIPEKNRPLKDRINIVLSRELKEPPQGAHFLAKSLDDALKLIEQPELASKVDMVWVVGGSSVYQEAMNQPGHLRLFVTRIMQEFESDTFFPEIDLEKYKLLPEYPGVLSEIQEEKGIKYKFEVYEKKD
The experiment in a line: Inhibition of binding of [3H]methotrexate to rat liver homogenate supernatant. The following applies: for inhibition at 125 µM: read-out: [3H]mtx binding (% inhibition @ 125 μM). The method, then:
All steps were carried out at 4° (or on ice). Freshly dissected rat liver was dissected into 0.25M ice-cold Sucrose and subsequently homogenised (U-turrax) in 50 mM pH 6.0 phosphate buffer (10 ml/g tissue) containing 15 mM Dithiothreitol. The resulting homogenate was centrifuged@47,500×g for 20 min and supernatant (filtered through cotton wool to remove fatty lumps) stored @ −80° before use (Rothenberg et al).
Inhibition of the binding of [^3H]methotrexate to rat liver homogenate supernatant fractions were carried out essentially as described by Arons et al, 1975.
as §1

The structures appear in SMILES notation. Structures can show the parent of a compound that is named as a salt.

On to `Cn1nc(-c2cccc(-c3ccccc3)c2)c(N)nc1=N` (as salt: methanesulfonate) [CEN-161, 5(3)-Amino-6-(3-biphenyl)-2,3(2,5)-dihydro-3(5)-imino-2-methyl-1,2,4-triazine methanesulfonate], for which the melting point was 180 to 181 °C.
The same measure, in the same setting: the figure for `CCn1nc(-c2cc(C(C)(C)C)cc(C(C)(C)C)c2)c(N)nc1=N` (as salt: methanesulphonate) [CEN-189, 5(3)-Amino-6-(3,5 bis-tert-butylphenyl)-2,3(2,5)-dihydro-3(5)-imino-2-ethyl-1,2,4-triazine methanesulphonate] is 258 to 261 °C; for `Cn1nc(C2(c3ccc(Cl)cc3)CCCC2)c(N)nc1=N` (as salt: methanesulfonate) [CEN-150, 5(3)-Amino-6-{1-[1-(4-chlorophenyl)]cyclopentyl}-2,3(2,5)-dihydro-3(5)-imino-2-methyl-1,2,4-triazine methanesulfonate] it is 272 to 273 °C.
On to `CCn1nc(-c2sc(Cl)c(Cl)c2Cl)c(N)nc1=N` (as salt: methanesulfonate) [CEN-195, 5(3)-Amino-6-{2-(3,4,5-trichloro)thienyl}-2,3(2,5)-dihydro-3(5)-imino-2-ethyl-1,2,4-triazine methanesulfonate], for which the melting point was 202 to 204 °C.
Turning to `Cn1nc(-c2ccccc2OC(F)F)c(N)nc1=N` (as salt: methanesulfonate) [CEN-146, 5(3)-Amino-6-(2-difluoromethoxyphenyl)-2,3(2,5)-dihydro-3(5)-imino-2-methyl-1,2,4-triazine methanesulfonate], the melting point lay within 213 to 215 °C.
`Cn1nc(-c2cccc3c2CCCC3)c(N)nc1=N` (as salt: methanesulfonate) [CEN-120, 5(3)-Amino-6-[1-(5,6,7,8-tetrahydronaphthyl)]-2,3(2,5)-dihydro-3(5)-imino-2-methyl-1,2,4-triazine methanesulfonate]: the melting point lay within 236 to 237 °C.
On to `CCn1nc(-c2cccc(C(F)(F)F)c2Cl)c(N)nc1=N` (as salt: methanesulphonate) [CEN-178, 5(3)-Amino-6-(2-chloro-3-trifluoromethyphenyl)-2,3(2,5)-dihydro-3(5)-imino-2-ethyl-1,2,4-triazine methanesulphonate], for which the melting point lay in the range of 207 to 209 °C.
Turning to `COc1cc(-c2nn(C)c(=N)nc2N)cc(OC)c1OC` (as salt: methanesulfonate) [CEN-101, 5(3)-Amino-6-(3,4,5-trimethoxyphenyl)-2,3(2,5)-dihydro-3(5)-imino-2-methyl-1,2,4-triazine methanesulfonate], the melting point lay within 258 to 259 °C.
Consider `Cn1nc(-c2cc(Br)c(Br)o2)c(N)nc1=N` (as salt: methanesulfonate) [CEN-135, 5(3)-Amino-6-[2-(4,5-dibromofuryl)]-2,3(2,5)-dihydro-3(5)-imino-2-methyl-1,2,4-triazine methanesulfonate], for which the melting point lay within 183 to 185 °C.
The compound `Cn1nc(-c2cc(F)c(F)cc2Cl)c(N)nc1=N` (as salt: mesylate) [CEN-204, 5(3)-Amino-6-(2-chloro-4,5-difluoro-5-phenyl)-2,3(2,5)-dihydro-3(5)-imino-2-methyl-1,2,4-triazine mesylate] showed a melting point of 319 to 321 °C.
In turn, `CCn1nc(-c2cccc(-c3ccccc3)c2)c(N)nc1=N` (as salt: methanesulfonate) [CEN-162, 5(3)-Amino-6-(3-biphenyl)-2,3(2,5)-dihydro-3(5)-imino-2-ethyl-1,2,4-triazine methanesulfonate] gave a melting point of 224 to 226 °C.
On to `CCn1nc(-c2cc(C(F)(F)F)cc(Cl)c2F)c(N)nc1=N` (as salt: mesylate) [CEN-203, 5(3)-Amino-6-(3-chloro-2-fluoro-5-trifluoromethyphenyl)-2,3(2,5)-dihydro-3(5)-imino-2-ethyl-1,2,4-triazine mesylate], for which the melting point was 277 to 279 °C.
Consider `Cn1nc(C(C)(c2ccccc2)c2ccccc2)c(N)nc1=N` (as salt: methanesulfonate) [CEN-149, 5(3)-Amino-6-(1,1-diphenylethyl)-2,3(2,5)-dihydro-3(5)-imino-2-methyl-1,2,4-triazine methanesulfonate], for which the melting point was 240 to 242 °C.
`Cn1nc(-c2cc(C(F)(F)F)cc(Cl)c2F)c(N)nc1=N` (as salt: mesylate) [CEN-202, 5(3)-Amino-6-(3-chloro-2-fluoro-5-trifluoromethyphenyl)-2,3(2,5)-dihydro-3(5)-imino-2-methyl-1,2,4-triazine mesylate] came in with a melting point of 277 to 279 °C.
`Nc1nnc(-c2cccnc2Cl)c(N)n1` [CEN-164, 3,5-Diamino-6-[3-(2-chloropyidyl)]-1,2,4-triazine] registered an IC50 in series [1] of 692 µM. In addition, in series [2], the inhibition at 125 µM was found to be 0%.
The compound `CCn1nc(-c2cccc(C(F)(F)F)c2Cl)c(N)nc1=N` [CEN-178, 5(3)-Amino-6-(2-chloro-3-trifluoromethyphenyl)-2,3(2,5)-dihydro-3(5)-imino-2-ethyl-1,2,4-triazine methanesulphonate] came in with an IC50 in series [1] of 28 µM. Besides, in series [2], the inhibition at 125 µM amounted to 27%.
As for `CCn1nc(-c2sc(Cl)c(Cl)c2Cl)c(N)nc1=N` [CEN-195, 5(3)-Amino-6-{2-(3,4,5-trichloro)thienyl}-2,3(2,5)-dihydro-3(5)-imino-2-ethyl-1,2,4-triazine methanesulfonate], in series [1], the half-maximal inhibitory concentration (IC50) came to 4 µM. Besides, the inhibition at 99 µM in series [2] (read-out: [3H]mtx binding % inhibition (* 99 μM, *** uses fresh batch of supernatant), 99 μM, fresh batch of supernatant) is -2%.
As to `Nc1nnc(-c2ccc(Oc3ccc(-c4nnc(N)nc4N)cc3)cc2)c(N)n1` [CEN-111, Bis-[3,5-Diamino-6-(4-ARYL)-1,2,4-triazine]], in series [1], inhibition was half-maximal at 912 µM (IC50). Besides, the inhibition at 125 µM in series [2] came to 97%.
Turning to `Cn1nc(-c2cccs2)c(N)nc1=N` [CEN-61, 5(3)-Amino-6-(2-thienyl)-2,3(2,5)-dihydro-3(5)-imino-2-methyl-1,2,4-triazine methanesulfonate], it took 676 µM to reach half-maximal inhibition in series [1] (IC50). For the same compound, the inhibition at 125 µM in series [2] amounted to 87%.
For the compound `CC(C)c1cc(C(C)C)c(-c2nnc(N)nc2N)c(C(C)C)c1` [CEN-180, 3,5-Diamino-6-(2,4,6-triisopropylphenyl)-1,2,4-triazine tosylate], the IC50 in series [1] was > 2000 µM. In series [2], the inhibition at 125 µM is -2%.
The compound `Cc1ccc(-c2nc(=N)n(C)nc2-c2ccc(C)cc2)cc1` [CEN-134, 3-Amino-2-methyl-5,6-bis(4-methylphenyl)-1,2,4-triazine mesylate] displayed an IC50 in series [1] of 4.9 µM. For the same compound, the inhibition at 125 µM in series [2] turned out to be 6%.
`Nc1nnc(-c2ccc3c(c2)OC(F)(F)O3)c(N)n1` [CEN-117, 3,5-Diamino-6-[5-(2,2-difluorobenzodioxolo)]-1,2,4-triazine]: the IC50 in series [1] is > 1000 µM. Further, the inhibition at 125 µM in series [2] worked out at 79%.
The compound `COc1ccc2c(OC)cccc2c1-c1nnc(N)nc1N` [CEN-156] gave a concentration for half-maximal inhibition (IC50) in series [1] (listed as 156) of 246 µM. Also, in series [2] (listed as 156, 125 µM), the “[3H]mtx binding (% inhibition @ 125 μM)” value is given as 32%.
As for `Nc1nnc(-c2cccc3c2OC(F)(F)O3)c(N)n1` [CEN-70, 3,5-Diamino-6-[4-(2,2-difluorobenzodioxolo)]-1,2,4-triazine], the concentration for half-maximal inhibition (IC50) in series [1] came to 1510 µM. In series [2], the inhibition at 125 µM worked out at 66%.
As for `Cn1nc(-c2ccccc2OC(F)F)c(N)nc1=N` [CEN-146, 5(3)-Amino-6-(2-difluoromethoxyphenyl)-2,3(2,5)-dihydro-3(5)-imino-2-methyl-1,2,4-triazine methanesulfonate], the IC50 in series [1] amounted to 871 µM. Also, the inhibition at 125 µM in series [2] was 3%.
In series [1], `Cn1nc2c3ccccc3c3ccccc3c2nc1=N` [CEN-136] displayed a 50% inhibitory concentration (IC50) of 229 µM. Further, in series [2], the inhibition at 125 µM came out at 27%.
As to `Nc1nnc(-c2cccc(OCc3ccc(C(F)(F)F)cc3C(F)(F)F)c2)c(N)n1` [CEN-171, 3,5-Diamino-6-[3-(2,4-trifluoromethylbenzyloxy)phenyl]-1,2,4-triazine], the midpoint of inhibition in series [1], the IC50, lay at 2 µM. In addition, the “[3H]mtx binding (% inhibition @ 125 μM)” value in series [2] was determined as 91%.

Broadly, the melting point is the temperature, or range, at which the solid turns liquid. The term IC50 denotes the point on the concentration scale where inhibition reaches its midpoint. As a reminder, the inhibition is the change of the read-out against control, counted positive when it falls.
